Values of other authors, collected in patent US20260284157A1, “POWDER COMPOSITION COMPRISING A HAEMOSTATIC AGENT” (WOMED, priority 2023, published 2026).

Details: certificate of analysis of the product (Sigma Aldrich)

## Thrombin
  activity of the protein: > 400 NIH units/mg protein
